{"source": "patent US8536137B2", "about": "“Methods for treating nucleoside-induced pain” (UCB Pharma GmbH, priority 2004, dated 2013)", "key": {"[1]": {"system": "rats intoxicated with anti-retroviral nucleoside analogue AIDS therapy drugs", "details": "intoxicated animals; literature report; cited from earlier work"}, "[2]": {"system": "bone cancer rats (MRMT-1 rat mammary gland carcinoma cells injected into the tibia)", "assay": "Bone cancer rat model: thermal paw stimulation (thermal hyperalgesia)", "type": "in vivo", "details": "SPM 927 30 mg/kg, days 14 and 15; Dunnett's p<0.001", "protocol": "Cells were cultured in medium containing RPMI-1640 (Gibco, 500 ml), 10% heat-inactivated fetal bovine serum (Hyclone), L-glutamine (final concentration 2 mM, from Gibco) and antibiotic solution (final concentration 100 U/ml penicillin and 100 ug/ml streptomycin sulfate, from Gibco). Cells were released from the tissue culture flask by brief exposure to 0.1% trypsin so (Gibco) and then prepared for injection as follows: cells were centrifuged for 10 minutes at approximately 1,200 rpm. The resulting pellet was washed twice in Phosphate Buffered Saline (PBS, Mediatech) containing no calcium or magnesium. Final pellet was re-suspended in PBS and cell count taken using a hemocytometer. Cells were diluted to achieve final concentrations for injection and kept on ice until injection was performed.\nAfter one week of quarantine, either culture media or 3×10^4 syngeneic MRMT-1 rat mammary gland carcinoma cells were injected into the medullary cavity of the proximal tibia of each rat. Procedurally, the animal was first anesthetized with ketamine/xylazine and the right leg area shaved and treated with an iodine solution and cleaned with a 70% ethanol solution. A 1-cm rostral-caudal incision was made in the skin over the top half of the tibia. […]\nOn days 7, 8, 14 and 15, pain assessment tests were performed. […] The animals were first evaluated for mechanical allodynia and then thermal hyperalgesia. […]"}, "[3]": {"system": "bone cancer rats (MRMT-1 rat mammary gland carcinoma cells injected into the tibia)", "assay": "Bone cancer rat model: weight bearing difference (mechanical hyperalgesia)", "type": "in vivo", "details": "SPM 927 40 mg/kg, following treatment; p<0.05", "protocol": "After one week of quarantine, either culture media or 3×10^4 syngeneic MRMT-1 rat mammary gland carcinoma cells were injected into the medullary cavity of the proximal tibia of each rat. Procedurally, the animal was first anesthetized with ketamine/xylazine and the right leg area shaved and treated with an iodine solution and cleaned with a 70% ethanol solution. A 1-cm rostral-caudal incision was made in the skin over the top half of the tibia. Blunt-dissection was performed to expose the tibia, ensuring minimal damage to muscles or blood vessels. Using a 23-gauge needle, the tibia was pierced. […] The needle was inserted at an angle to enable it to be pushed down into the intramedullary canal of the bone. Once a pathway to the intramedullary canal was opened, the 23-gauge needle was removed and replaced by a blunt needle attached to a 5 μl Hamilton syringe. […]\nOn days 7, 8, 14 and 15, pain assessment tests were performed. […] The animals were first evaluated for mechanical allodynia and then thermal hyperalgesia. […] The animals were first evaluated for baseline weight bearing responses. […]\nAfter the animals in groups 4-6 were re-randomized to drug treatment groups, on day 9, 15 all animals underwent weight-bearing testing. Weight bearing of affected hind limbs was assessed as the difference in weight borne by the ipsilateral compared to the contralateral limb. […]"}, "vincristine-rats [4]": {"system": "vincristine-rats", "assay": "Vincristine-induced pain model: cold bath test (thermal allodynia)", "type": "in vivo, rat", "details": "day 17; for threshold latency in cold bath test vs vincristine/vehicle: 30 min before test", "description": "(§1) For this study, 86 female Dark Agouti rats (150-200 g) were used (Harlan, Gannat, France), They were group-housed (3 animals per cage) and maintained in a room with controlled temperature (21-22° C.) and a reversed light-dark cycle (12 h/12 h) with food and water available ad libitum. All experiments were carried out in accordance with institutional guidelines. Vincristine intoxication was achieved by daily injection of vincristine (0.15 mg/kg/d, i.p.) from day 1 to 5, from day 8 to 12 and days 15 to 16. On day 17, animals were submitted to the behavioral test and received pharmacological treatment.\n(§2) Animals were placed on ice platform submerged approximately 1 cm below the surface of cold water (4° C.), such that the hairy and glabrous skin of the animal feet was in contact with the cold water. The latency before the first reaction (licking, moving the paws, little leaps) was recorded with a cut off time of 30 s.\n(§3) ANOVA followed by post-hoc analysis (Dunneft's test) was used to compare groups of behavioral data in each individual time points."}, "vincristine-rats [5]": {"system": "vincristine-rats", "assay": "Vincristine-induced pain model: hot plate test at 38° C. (thermal allodynia)", "type": "in vivo, rat", "details": "day 17", "description": "as §1\n(§4) Animals were placed into a glass cylinder on a hot plate (Bioblock, France) adjusted to 38° C. or 52° C. The latency of the first reaction (licking, moving the paws, little leaps or a jump to escape the heat) was recorded with a cut off time of 30 s.\nas §3"}, "vincristine-rats [6]": {"system": "vincristine-rats", "assay": "Vincristine-induced pain model: hot plate test at 52° C. (thermal hyperalgesia)", "type": "in vivo, rat", "details": "day 17, p<0.05 Dunnett's, comparable with control", "description": "as §1, §4, §3"}, "vincristine-rats [7]": {"system": "vincristine-rats", "assay": "Vincristine-induced pain model: paw pressure test (mechanical hyperalgesia)", "type": "in vivo, rat", "details": "day 17; for paw withdrawal latency in paw pressure test (Randall & Selitto): p<0.05 Dunnett's", "description": "as §1\n(§5) The nociceptive flexion reflex was quantified using the Randall-Selitto paw pressure device (Bioseb, France), which applies a linearly increasing mechanical force to the dorsum of the rat's hind paw. The mechanical nociceptive threshold was defined as the force in grams at which the rat withdrew its paw. The cut off pressure was set to 250 g.\nas §3"}, "vincristine-rats [8]": {"system": "vincristine-rats", "assay": "Vincristine-induced pain model: von Frey hair stimulation test (mechanical allodynia)", "type": "in vivo, rat", "details": "day 17; for paw withdrawal latency in von Frey filament test, difference with vehicle-treated group: p<0.05 Dunnett's", "description": "as §1\n(§6) Rats were placed on a metallic grid floor. The nociceptive testing was done by inserting the von Frey filament (Bioseb, France) through the grid floor and applying it to the plantar surface of the hind paw. A trial consisted of several applications of the different von Frey filaments (at a frequency of 1-1.5 s). The von Frey filaments were applied from filament 10 g to 100 g. The mechanical allodynia threshold was recorded as soon as the animal removed its hind paw the test was stopped and the filament number was recorded.\nas §3"}, "ddC-rats [9]": {"system": "ddC-rats", "assay": "Nucleoside-induced pain model (ddC): cold bath test (thermal allodynia)", "type": "in vivo, rat", "details": "for threshold latency in cold bath test vs ddC/vehicle: p<0.05 Dunnett's, comparable to control animals", "description": "as §2, §3\n(§7) For this study, 50 male Sprague Dawley (˜220 g) rats were used (Janvier, Le Genest-St-isle, France). Rats were group-housed (3 animals per cage) and maintained in a room with controlled temperature (21-22° C.) and a reversed light-dark cycle (12 h/12 h) with food and water available ad libitum. All experiments were carried out in accordance with institutional guidelines. Intoxication was achieved by a single injection of ddC (50 mg/kg, I.V. in tail vein)."}, "ddC-rats [10]": {"system": "ddC-rats", "assay": "Nucleoside-induced pain model (ddC): brushing test at day 20 (mechanical allodynia)", "type": "in vivo, rat", "description": "as §3, §7\nThe hair on the legs, flanks, and lower back was sequentially brushed with a cotton-tipped applicator using an oscillating motion (rate of 1-2/s; 30 sec). Brushing was done with no more force than required to move the applicator through the hair such that only the pelage is disturbed. Vocalization and moderate effects to avoid the brushing were counted."}, "ddC-rats [11]": {"system": "ddC-rats", "assay": "Nucleoside-induced pain model (ddC): von Frey filament test at D10 (mechanical allodynia)", "type": "in vivo, rat", "details": "for paw withdrawal latency in von Frey filament test, difference with vehicle-treated group: p<0.05, level comparable to control group", "description": "as §6, §3, §7"}, "ddC-rats [12]": {"system": "ddC-rats", "assay": "Nucleoside-induced pain model (ddC): hot plate test at 52° C. at D20 (thermal hyperalgesia)", "type": "in vivo, rat", "description": "as §4, §3, §7"}, "ddC-rats [13]": {"system": "ddC-rats", "assay": "Nucleoside-induced pain model (ddC): paw pressure test at D10 (mechanical hyperalgesia)", "type": "in vivo, rat", "details": "p<0.05 Dunnett's", "excerpt": "as §5, §3, §7"}, "[14]": {"system": "rat model of bone cancer pain, chemotherapy- and nucleoside-induced pain", "assay": "Overall summary of the bone cancer, chemotherapy-induced and nucleoside-induced pain models", "type": "in vivo", "details": "across the three rat models", "excerpt": "The effect of systemic administration of SPM 927 was examined in rats in a tumor-induced bone cancer pain model, in a chemotherapy-induced and a nucleoside analogue-induced neuropathic pain model. SPM 927 reduced mechanical and thermal hyperalgesia as well as mechanical and thermal allodynia in these models."}}}
{"smiles": "COc1cc(N(CC(=O)O)CC(=O)O)c2nc(COc3cc(C)ccc3N(CC(=O)O)CC(=O)O)ccc2c1", "note": "[Quin-2]", "values": [{"measurement": "reversal of nucleoside reverse transcriptase inhibitor-induced hypersensitivity", "setting": "[1]", "value": "capable of reversing"}]}
{"smiles": "COC[C@@H](NC(C)=O)C(=O)NCc1ccccc1", "note": "[SPM 927, (R)-2-acetamide-N-benzyl-3-methoxypropionamide]", "values": [{"measurement": "latency to remove paw (thermal paw testing), post-treatment vs 'cells only'", "setting": "[2]", "value": "different"}, {"measurement": "amount of weight placed on contralateral paw (weight bearing difference) vs 'cells only' group", "setting": "[3]", "value": "significant reduction"}, {"measurement": "threshold latency in cold bath test vs vincristine/vehicle", "setting": "vincristine-rats [4]; SPM 927 3 mg/kg i.p., slightly greater than vincristine-animals", "value": "statistical difference was not reached"}, {"measurement": "threshold latency in cold bath test vs vincristine/vehicle", "setting": "vincristine-rats [4]; SPM 927 10 mg/kg i.p., p<0.05 Dunnett's, comparable to control animals", "value": "significant increase"}, {"measurement": "threshold latency in cold bath test vs vincristine/vehicle", "setting": "vincristine-rats [4]; SPM 927 30 mg/kg i.p., p<0.05 Dunnett's, comparable to control animals", "value": "significant increase"}, {"measurement": "threshold latency in hot plate (38° C.) test vs vincristine/vehicle", "setting": "vincristine-rats [5]; SPM 927 3 mg/kg i.p.", "value": "significant (p<0.05, Dunneft's test) increase"}, {"measurement": "threshold latency in hot plate (38° C.) test vs vincristine/vehicle", "setting": "vincristine-rats [5]; SPM 927 10 mg/kg i.p., comparable with control animals", "value": "significant (p<0.05, Dunneft's test) increase"}, {"measurement": "threshold latency in hot plate (38° C.) test vs vincristine/vehicle", "setting": "vincristine-rats [5]; SPM 927 30 mg/kg i.p., comparable with control animals", "value": "significant (p<0.05, Dunneft's test) increase"}, {"measurement": "paw withdrawal latency in hot plate test at 52° C. vs vehicle-treated animals", "setting": "vincristine-rats [6]; SPM 927 3 mg/kg i.p.", "value": "significant increase"}, {"measurement": "paw withdrawal latency in hot plate test at 52° C. vs vehicle-treated animals", "setting": "vincristine-rats [6]; SPM 927 10 mg/kg i.p.", "value": "significant increase"}, {"measurement": "paw withdrawal latency in hot plate test at 52° C. vs vehicle-treated animals", "setting": "vincristine-rats [6]; SPM 927 30 mg/kg i.p.", "value": "significant increase"}, {"measurement": "paw withdrawal latency in paw pressure test (Randall & Selitto)", "setting": "vincristine-rats [7]; SPM 927 10 mg/kg i.p.", "value": "significant increase"}, {"measurement": "paw withdrawal latency in paw pressure test (Randall & Selitto)", "setting": "vincristine-rats [7]; SPM 927 30 mg/kg i.p.", "value": "significant increase"}, {"measurement": "paw withdrawal latency in von Frey filament test, difference with vehicle-treated group", "setting": "vincristine-rats [8]; SPM 927 10 mg/kg i.p.", "value": "reached the significance level"}, {"measurement": "paw withdrawal latency in von Frey filament test, difference with vehicle-treated group", "setting": "vincristine-rats [8]; SPM 927 30 mg/kg i.p.", "value": "reached the significance level"}, {"measurement": "threshold latency in cold bath test vs ddC/vehicle", "setting": "ddC-rats [9]; SPM 927 3 mg/kg i.p.", "value": "significant increase"}, {"measurement": "threshold latency in cold bath test vs ddC/vehicle", "setting": "ddC-rats [9]; SPM 927 10 mg/kg i.p.", "value": "significant increase"}, {"measurement": "threshold latency in cold bath test vs ddC/vehicle", "setting": "ddC-rats [9]; SPM 927 30 mg/kg i.p.", "value": "significant increase"}, {"measurement": "total number of cries in brushing test", "setting": "ddC-rats [10]; SPM 927 3 mg/kg i.p., D 20, p<0.05 Dunnett's", "value": "significant decrease"}, {"measurement": "total number of cries in brushing test", "setting": "ddC-rats [10]; SPM 927 10 mg/kg i.p., D 20, p<0.05 Dunnett's", "value": "significant decrease"}, {"measurement": "total number of cries in brushing test", "setting": "ddC-rats [10]; SPM 927 30 mg/kg i.p., D20, p<0.05 Dunnett's", "value": "significant decrease"}, {"measurement": "paw withdrawal latency in von Frey filament test, difference with vehicle-treated group", "setting": "ddC-rats [11]; SPM 927 3 mg/kg i.p.", "value": "reached the significance level"}, {"measurement": "paw withdrawal latency in von Frey filament test, difference with vehicle-treated group", "setting": "ddC-rats [11]; SPM 927 10 mg/kg i.p.", "value": "reached the significance level"}, {"measurement": "paw withdrawal latency in von Frey filament test, difference with vehicle-treated group", "setting": "ddC-rats [11]; SPM 927 30 mg/kg i.p.", "value": "reached the significance level"}, {"measurement": "paw withdrawal latency in hot plate test at 52° C., effect", "setting": "ddC-rats [12]; SPM 927 3 mg/kg i.p.", "value": "comparable with untreated vehicle group"}, {"measurement": "paw withdrawal latency in hot plate test at 52° C., effect", "setting": "ddC-rats [12]; SPM 927 10 mg/kg i.p.", "value": "comparable with untreated vehicle group"}, {"measurement": "paw withdrawal latency in hot plate test at 52° C. vs vehicle-treated animals", "setting": "ddC-rats [12]; SPM 927 30 mg/kg i.p., p<0.05 Dunnett's", "value": "significant increase"}, {"measurement": "paw withdrawal latency in paw pressure test (Randall & Selitto)", "setting": "ddC-rats [13]; SPM 927 3 mg/kg i.p.", "value": "significant increase"}, {"measurement": "paw withdrawal latency in paw pressure test (Randall & Selitto)", "setting": "ddC-rats [13]; SPM 927 10 mg/kg i.p.", "value": "significant increase"}, {"measurement": "paw withdrawal latency in paw pressure test (Randall & Selitto)", "setting": "ddC-rats [13]; SPM 927 30 mg/kg i.p.", "value": "significant increase"}, {"measurement": "analgesic activity compared with morphine", "setting": "[14]; systemic administration", "value": "overall more active than morphine"}, {"measurement": "anti-allodynic and anti-hyperalgesic effect", "setting": "[14]; systemic, single dose administration", "value": "dose-dependent"}]}
{"smiles": "CCN(CC)CCCCCCCCOC(=O)c1cc(OC)c(OC)c(OC)c1", "note": "[TMB-8]", "values": [{"measurement": "reversal of nucleoside reverse transcriptase inhibitor-induced hypersensitivity", "setting": "[1]", "value": "capable of reversing"}]}
{"smiles": "CN1CC[C@]23c4c5ccc(O)c4O[C@H]2[C@@H](O)C=C[C@H]3[C@H]1C5", "note": "[morphine, reference compound]", "values": [{"measurement": "threshold latency in cold bath test, level reached", "setting": "vincristine-rats [4]; morphine 3 mg/kg s.c., 45 min before test", "value": "far above that obtained from control rats"}, {"measurement": "threshold latency in hot plate (38° C.) test, level reached", "setting": "vincristine-rats [5]; morphine 3 mg/kg s.c.", "value": "comparable with that of control rats"}, {"measurement": "performance in paw pressure test (Randall & Selitto)", "setting": "vincristine-rats [7]; morphine 3 mg/kg s.c., p>0.05", "value": "did not modify the performance"}, {"measurement": "performance in von Frey filament test", "setting": "vincristine-rats [8]; morphine 3 mg/kg s.c.", "value": "restored the performance of vincristine-rats to a level comparable with that of control group"}, {"measurement": "threshold latency in cold bath test, level reached", "setting": "ddC-rats [9]; morphine 3 mg/kg s.c.", "value": "comparable to that obtained from control rats"}, {"measurement": "total number of cries in brushing test", "setting": "ddC-rats [10]; morphine 3 mg/kg s.c., D 20", "value": "significantly decrease"}, {"measurement": "performance in von Frey filament test", "setting": "ddC-rats [11]; morphine 3 mg/kg s.c.", "value": "restored the performance of ddC-rats to a level similar to control group"}, {"measurement": "performance in paw pressure test (Randall & Selitto)", "setting": "ddC-rats [13]; morphine 3 mg/kg s.c.", "value": "increased the performance"}]}
